Measurements reported in US20230381144A1, “COMPOSITIONS AND METHODS FOR TREATMENT OF PAIN” (SYNVENTA LLC, priority 2019, published 2023).

Experiments:
[1] = Radio-telemetry recording of core body temperature in conscious rats; format: in vivo, Sprague-Dawley rat
Procedure: A laparotomy is performed.
One week later, drugs tests are conducted.
FIGS. 2-4 all show an increase in core body temperature approaching and at the zero time point. Those skilled in the art would readily appreciate that this increase is an artifact in the study associated with the required handling of the animals to effectuate the dosing.

[2] = cited from earlier work
[3] = 0.003 mg/kg and 0.01 mg/kg, i.p.; male and female rats
Procedure: Adult male and female Sprague-Dawley are implanted with radio-telemetry transmitters for monitoring blood pressure and core body temperature. Radio-telemetry transmitter (DSI HD-S10) implantation is performed under sterile condition. Long-acting buprenorphine (1 mg/kg/day, SC) is administered prior to anesthesia for postoperative pain relief. Rats are anesthetized with 5% isoflurane and kept on 2% isoflurane to maintain a stable level of anesthesia. Body temperature is maintained during surgery using a heating pad. A laparotomy is performed. The catheter tip of the telemetry transmitter is secured with a 4-0 silk suture in the abdominal cavity. The body of the telemetry transmitter is placed in the abdominal cavity and secured to the abdominal wall. Approximately 100 μL of 0.25% marcaine is applied directly to the muscle incision, and the skin is then closed with a 5-0 Vicryl absorbable suture placed subcuticularly. After recovery from anesthesia, rats are returned to their home cages placed on DSI receivers.
After one week of recovery, rats are habituated to the drug administration procedure over three separate sessions. One week later, drugs tests are conducted. […]

CC(C)(C)c1ccc2c(c1)CC[C@H]2NC(=O)Nc1cccc2[nH]ncc12 [ABT-102, 1-[(1R)-5-tert-butyl-2,3-dihydro-1H-inden-1-yl]-3-(1H-indazol-4-yl)urea]
increase in body temperature above vehicle ([1]; conscious, telemetry-instrumented rat, ABT-102 3 and 10 mg/kg, p.o., FIG. 2): up to 1.0 °C

CC(=O)Nc1nc2c(Oc3cc(-c4ccc(C(F)(F)F)cc4)ncn3)cccc2s1 [AMG 517, N-(4-((6-(4-(trifluoromethyl)phenyl)pyrimidin-4-yl)oxy)benzo[d]thiazol-2-yl)acetamide]
temperature elevations ([2]; Phase 1b study, reason the study was halted): unexpectedly high temperature elevations | analgesic effect ([2]; review of the data for the 17 subjects enrolled): no clear analgesic effect

Cc1cccc([C@H](C)c2cnc[nH]2)c1C [dexmedetomidine]
effect on ABT-102-induced hyperthermia at the lowest tested dose ([1]; dexmedetomidine 0.003 mg/kg in combination with ABT-102, FIG. 4): able to neutralize ABT-102-induced hyperthermia | effect on core body temperature ([1]; dexmedetomidine alone, 0.003 mg/kg, FIG. 3): no effect | effect on ABT-102-induced increase in core body temperature ([1]; dexmedetomidine in combination with ABT-102 5 mg/kg, p.o., FIG. 4, p<0.0001): prevented hyperthermic effects | effect of dexmedetomidine on its own (FIG. 5, mean arterial blood pressure) [3]: free from causing hypothermic effects
